Like-named read-outs stand apart in the source and are kept apart here.
Tests used:
Type in all cases: biochemical
MAGL = biological target: T1, MAGL (Homo sapiens, UniProt Q99685); test: In vitro competitive activity-based protein profiling (FP-Rh or HT-01 probe, gel-based); design: IC50 MGLL PC3 (Human, μM) / IC50 MGLL PFC (Human, μM): scale not given here; conditions: for % Inh MGLL PC3 (Human, μM) / % Inh MGLL PFC (Human, μM): concentration not given (μM)
T1 construct: Proteomes (human prefrontal cortex or cell membrane fractions); from tissue
T1 sequence (Q99685 1-303): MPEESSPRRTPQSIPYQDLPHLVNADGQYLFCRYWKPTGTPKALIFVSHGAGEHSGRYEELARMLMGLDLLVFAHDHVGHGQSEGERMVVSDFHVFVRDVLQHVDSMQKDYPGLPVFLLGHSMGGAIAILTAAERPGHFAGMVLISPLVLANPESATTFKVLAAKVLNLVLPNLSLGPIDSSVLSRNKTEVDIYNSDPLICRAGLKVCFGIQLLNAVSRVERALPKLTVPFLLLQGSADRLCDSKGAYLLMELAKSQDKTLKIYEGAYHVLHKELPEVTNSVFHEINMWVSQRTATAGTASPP
Procedure, shortened: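 Human prefrontal cortex or cell membrane proteomes (1.0 mg/mL total protein) were preincubated with varying inhibitor concentrations for 30 min at 37° C. FP-Rh or HT-01 probe (50 μM DMSO stock) was then added for 30 min at room temperature, and samples were quenched in SDS loading buffer and resolved by SDS-PAGE.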

MGLL = biological target: T2, MGLL (Mus musculus, UniProt O35678); test: In vitro competitive activity-based protein profiling, mouse brain proteome (MGLL); design: IC50 MGLL Brain (Mouse, μM): scale not given here; conditions: for % Inh MGLL Brain (Mouse, μM): concentration not given (μM)
T2 construct: Brain; from tissue; host or cells: mouse brain proteome
T2 sequence (O35678 1-303): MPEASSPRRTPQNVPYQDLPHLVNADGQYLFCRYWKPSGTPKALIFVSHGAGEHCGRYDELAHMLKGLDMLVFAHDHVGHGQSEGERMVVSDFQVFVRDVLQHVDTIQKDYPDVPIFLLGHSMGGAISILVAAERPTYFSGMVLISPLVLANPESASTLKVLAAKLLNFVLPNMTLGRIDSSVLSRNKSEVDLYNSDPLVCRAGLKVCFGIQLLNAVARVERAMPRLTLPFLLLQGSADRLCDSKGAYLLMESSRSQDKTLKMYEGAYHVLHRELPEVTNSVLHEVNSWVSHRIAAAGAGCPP

ABHD6 = biological target: T3, ABHD6 (Mus musculus, UniProt Q8R2Y0); test: In vitro competitive activity-based protein profiling, mouse brain proteome (ABHD6); conditions: mouse brain proteome; concentration not given (μM)
T3 construct: Brain; from tissue; host or cells: mouse brain proteome
T3 sequence (Q8R2Y0 1-336): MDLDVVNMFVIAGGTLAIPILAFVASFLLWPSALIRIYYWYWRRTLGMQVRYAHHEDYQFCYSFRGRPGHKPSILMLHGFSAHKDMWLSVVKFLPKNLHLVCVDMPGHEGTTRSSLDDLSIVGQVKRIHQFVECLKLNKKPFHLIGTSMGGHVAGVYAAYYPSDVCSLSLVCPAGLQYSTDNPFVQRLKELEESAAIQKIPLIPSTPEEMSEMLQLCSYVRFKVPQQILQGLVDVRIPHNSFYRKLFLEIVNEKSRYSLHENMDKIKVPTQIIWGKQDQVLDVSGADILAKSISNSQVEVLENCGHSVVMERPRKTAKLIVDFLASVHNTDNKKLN
Method: [The source words this procedure for another target and reports this target under the same test.] In Vitro Competitive Activity-Based Protein Profiling.
Proteomes (human prefrontal cortex or cell membrane fractions) (50 μL, 1.0 mg/mL total protein concentration) were preincubated with varying concentrations of inhibitors at 37° C. After 30 min, FP-Rh or HT-01 (1.0 μL, 50 μM in DMSO) was added and the mixture was incubated for another 30 min at room temperature. Reactions were quenched with SDS loading buffer (15 μL-4×) and run on SDS-PAGE.

[1] = prefrontal cortex (PFC) proteome

Compound | % Inh MGLL PC3 (Human, μM) (MAGL; PC3 cell proteome) | % Inh MGLL Brain (Mouse, μM) (MGLL) | % Inh ABHD6 Brain (Mouse, μM) (ABHD6) | IC50 (MAGL; PC3 cell proteome, read-out: IC50 MGLL PC3 (Human)) [nM] | % Inh MGLL PFC (Human, μM) (MAGL; [1]) | IC50 (MAGL; prefrontal cortex (PFC) proteome, read-out: IC50 MGLL PFC (Human)) [nM] | IC50 MGLL PC3 (Human, μM) (MAGL; PC3 cell proteome) | IC50 MGLL PFC (Human, μM) (MAGL; [1]) | IC50 MGLL Brain (Mouse, μM) (MGLL)
CC(C)(C#Cc1cc(CN2CCCC23CCN(C(=O)OC(C(F)(F)F)C(F)(F)F)CC3)cc(C(F)(F)F)c1)C(=O)O [Example 140, 4-{3-[(8-{[(1,1,1,3,3,3-Hexafluoropropan-2-yl)oxy]carbonyl}-1,8-diazaspiro[4.5]decan-1-yl)methyl]-5-(trifluoromethyl)phenyl}-2,2-dimethylbut-3-ynoic acid] | ### (### is ≥75%) | ### (### is ≥75%) | ### (### is ≥75%) |  |  |  |  |  | 
CN(Cc1ccc(C(F)(F)F)cc1N1CCC[C@H]1C(=O)O)C1(C)CCN(C(=O)OC(C(F)(F)F)C(F)(F)F)CC1 [Example 132, (2-(((1-(((1,U, 3,3,3-Hexafluoropropan-2-yl)oxy)carbonyl)-4-methylpiperidin-4-yl)(methyl)amino)methyl)-5-(trifluoromethyl)phenyl)proline] | ### (### is ≥75%) | ### (### is ≥75%) | # (# is ≤25%) | 100 to 1000 | ### (### is ≥75%) |  |  |  | 
O=C(O)c1ccc(CN2CC3(CCN(C(=O)OC(C(F)(F)F)C(F)(F)F)CC3)C2)cc1C(F)(F)F [Example 131, 4-((7-(((1,1,1,3,3,3-Hexafluoropropan-2-yl)oxy)carbonyl)-2,7-diazaspiro[3,5]nonan-2-yl)methyl)-2-(trifluoromethyl)benzoic acid] |  | ## (## is between 25 and 75%) | ### (### is ≥75%) |  | ### (### is ≥75%) |  |  |  | 
CN(Cc1ccc(C(F)(F)F)cc1N1CCOC(C(=O)O)C1)C1(C)CCN(C(=O)OC(C(F)(F)F)C(F)(F)F)CC1 (centres unmarked) [Example 108, 4-(2-(((1-(((1,1,1,3,3,3-Hexafluoropropan-2-yl)oxy)carbonyl)-4-methylpiperidin-4-yl)(methyl)amino)methyl)-5-(trifluoromethyl)phenyl) morpholine-2-carboxylic acid] |  | ### (### is ≥75%) | ## (## is between 25 and 75%) |  | ### (### is ≥75%) |  |  |  | 
O=C(O)C1CCCN1C1CCN(c2cc(C(F)(F)F)ccc2CN2CCCC23CCN(C(=O)OC(C(F)(F)F)C(F)(F)F)CC3)CC1 (centres unmarked) [Example 159] | ### (### is ≥75%) | ### (### is ≥75%) | # (# is ≤25%) |  |  | < 100 |  |  | 
O=C(O)C1CCN(c2cc(Cl)cc(CN3CC4(CCN(C(=O)OC(C(F)(F)F)C(F)(F)F)CC4)C3)c2)CC1 [Example 116, l-(3-Chloro-5-((7-(((1,1,1,3,3,3-hexafluoropropan-2-yl)oxy)carbonyl)-2,7-diazaspiro[3.5]nonan-2-yl)methyl)phenyl)piperidine-4-carboxylic acid] |  | ### (### is ≥75%) | ### (### is ≥75%) |  | ### (### is ≥75%) |  |  |  | 
CN(Cc1ccc(C(F)(F)F)cc1N1CC2CC1CN2CC(=O)O)C1(C)CCN(C(=O)OC(C(F)(F)F)C(F)(F)F)CC1 (centres unmarked) [Example 27, 2-(5-(2-(((1-(((1,1,1,3,3,3-Hexafluoropropan-2-yl)oxy)carbonyl)-4-methylpiperidin-4-yl)(methyl)amino)methyl)-5-(trifluoromethyl)phenyl)-2,5-diazabicyclo[2.2.1]heptan-2-yl)acetic acid] | ### (### is ≥75%) | ### (### is ≥75%) | ### (### is ≥75%) |  |  |  | * * * | * * * | 
O=C(O)C1CN(c2cc(CN3CC4(CCN(C(=O)OC(C(F)(F)F)C(F)(F)F)CC4)C3)cc(C(F)(F)F)c2)CCO1 (centres unmarked) [Example 100, 4-(3-((7-(((1,1,1,3,3,3-Hexafluoropropan-2-yl)oxy)carbonyl)-2,7-diazaspiro[3,5]nonan-2-yl)methyl)-5-(trifluoromethyl)phenyl)morph-oline-2-carboxylic acid] |  | ### (### is ≥75%) | ### (### is ≥75%) |  | ### (### is ≥75%) |  |  |  | 
CN(Cc1ccc(C(F)(F)F)cc1-c1nnn[nH]1)C1(C)CCN(C(=O)OC(C(F)(F)F)C(F)(F)F)CC1 [Example 24, 1,1,1,3,3,3-Hexafluoropropan-2-yl 4-((2-(1H-tetrazol-5-yl)-4-(trifluoromethyl)benzyl)(methyl)amino)-4-methylpiperidine-1-carboxylate] |  | ### (### is ≥75%) | ## (## is between 25 and 75%) |  | ### (### is ≥75%) |  | * * * |  | 
O=C(O)C1CCN(Cc2cc(Cl)cc(C(=O)N3CCCC34CCN(C(=O)OC(C(F)(F)F)C(F)(F)F)CC4)c2)CC1 [Example 11, 1-(3-Chloro-5-(8-(((1,1,1,3,3,3-hexafluoropropan-2-yl)oxy)carbonyl)-1,8-diazaspiro[4.5]decane-1-carbonyl)benzyl)piperidine-4-carboxylic acid] | ### (### is ≥75%) | ### (### is ≥75%) | # (# is ≤25%) |  |  |  |  | * * * | 
CC(C)(C#Cc1cc(C(F)(F)F)ccc1CN1CCCC12CCN(C(=O)OC(C(F)(F)F)C(F)(F)F)CC2)C(=O)O [Example 5, 4-(2-((8-(((1,1,1,3,3,3-Hexafluoropropan-2-yl)oxy)carbonyl)-1,8-diazaspiro[4.5]decan-1-yl)methyl)-5-(trifluoromethyl)phenyl)-2,2-dimethylbut-3-ynoic acid] | ### (### is ≥75%) | ### (### is ≥75%) | # (# is ≤25%) |  |  |  | * * * |  | 
O=C(O)CN1CC2(CCN(c3cc(C(F)(F)F)ccc3CN3CCCC34CCN(C(=O)OC(C(F)(F)F)C(F)(F)F)CC4)CC2)C1 [Example 157, 2-(7-(2-((8-(((1,1,1,3,3,3-Hexafluoropropan-2-yl)oxy)carbonyl)-1,8-diazaspiro[4.5]decan-1-yl)methyl)-5-(trifluoromethyl)phenyl)-2,7-diazaspiro[3.5]nonan-2-yl)acetic acid] |  | ### (### is ≥75%) | # (# is ≤25%) |  | ### (### is ≥75%) |  |  |  | 
O=C(O)CN1CC2CN(c3cc(C(F)(F)F)ccc3CN3CCCC34CCN(C(=O)OC(C(F)(F)F)C(F)(F)F)CC4)CC2C1 (centres unmarked) [Example 155] |  | ### (### is ≥75%) | # (# is ≤25%) |  | ### (### is ≥75%) |  |  |  | 
O=C(O)C1CN(c2cc(C(F)(F)F)ccc2CN2CC3(CCN(C(=O)OC(C(F)(F)F)C(F)(F)F)CC3)C2)CCO1 (centres unmarked) [Example 20, 4-(2-((7-(((1,1,1,3,3,3-Hexafluoropropan-2-yl)oxy)carbonyl)-2,7-diazaspiro[3.5]nonan-2-yl)methyl)-5-(trifluoromethyl)phenyl)morpholine-2-carboxylic acid] |  | ### (### is ≥75%) | ## (## is between 25 and 75%) |  | ### (### is ≥75%) |  | * * * | * * * | * * *
CC1(OCc2ccc(Cl)cc2C2(C(=O)O)CCCC2)CCN(C(=O)OC(C(F)(F)F)C(F)(F)F)CC1 [Example 146, 1-(5-Chloro-2-{[(1-{[(1,1,1,3,3,3-hexafluoropropan-2-yl)oxy]carbonyl}-4-methylpiperidin-4-yl)oxy]methyl}phenyl) cyclopentane-1-carboxylic acid] | ### (### is ≥75%) | ### (### is ≥75%) | ## (## is between 25 and 75%) |  |  |  |  |  | 

Source: patent US11161856B2 (H. Lundbeck A/S, priority 2017, dated 2021)
